Data reported in patent US20240043395A1, “COMPOUNDS AND COMPOSITIONS AS MODULATORS OF TLR SIGNALING” (Neuropore Therapies, Inc., priority 2020, published 2024).
Values joined by “and” are separate entries in the source; they are usually repeats but may differ in a detail not shown here. Identical values can stand only once.

How the values were obtained:
Assay type in all cases: cell-based
human TLR9 = human TLR9 (Homo sapiens (Human), UniProt Q9NR96); test: HEK-Blue hTLR9 antagonism assay (SEAP reporter), agonist ODN 2006; settings: HEK-Blue hTLR9 cells; ODN 2006 (TLR9 agonist) at approx. 3×EC50; 18 h; exact values 8-point, approximate (~ or <) 4-point dilutions; read-out: IC50 (μM) with ODN2006
Chain of human TLR9 (Q9NR96 26-1032): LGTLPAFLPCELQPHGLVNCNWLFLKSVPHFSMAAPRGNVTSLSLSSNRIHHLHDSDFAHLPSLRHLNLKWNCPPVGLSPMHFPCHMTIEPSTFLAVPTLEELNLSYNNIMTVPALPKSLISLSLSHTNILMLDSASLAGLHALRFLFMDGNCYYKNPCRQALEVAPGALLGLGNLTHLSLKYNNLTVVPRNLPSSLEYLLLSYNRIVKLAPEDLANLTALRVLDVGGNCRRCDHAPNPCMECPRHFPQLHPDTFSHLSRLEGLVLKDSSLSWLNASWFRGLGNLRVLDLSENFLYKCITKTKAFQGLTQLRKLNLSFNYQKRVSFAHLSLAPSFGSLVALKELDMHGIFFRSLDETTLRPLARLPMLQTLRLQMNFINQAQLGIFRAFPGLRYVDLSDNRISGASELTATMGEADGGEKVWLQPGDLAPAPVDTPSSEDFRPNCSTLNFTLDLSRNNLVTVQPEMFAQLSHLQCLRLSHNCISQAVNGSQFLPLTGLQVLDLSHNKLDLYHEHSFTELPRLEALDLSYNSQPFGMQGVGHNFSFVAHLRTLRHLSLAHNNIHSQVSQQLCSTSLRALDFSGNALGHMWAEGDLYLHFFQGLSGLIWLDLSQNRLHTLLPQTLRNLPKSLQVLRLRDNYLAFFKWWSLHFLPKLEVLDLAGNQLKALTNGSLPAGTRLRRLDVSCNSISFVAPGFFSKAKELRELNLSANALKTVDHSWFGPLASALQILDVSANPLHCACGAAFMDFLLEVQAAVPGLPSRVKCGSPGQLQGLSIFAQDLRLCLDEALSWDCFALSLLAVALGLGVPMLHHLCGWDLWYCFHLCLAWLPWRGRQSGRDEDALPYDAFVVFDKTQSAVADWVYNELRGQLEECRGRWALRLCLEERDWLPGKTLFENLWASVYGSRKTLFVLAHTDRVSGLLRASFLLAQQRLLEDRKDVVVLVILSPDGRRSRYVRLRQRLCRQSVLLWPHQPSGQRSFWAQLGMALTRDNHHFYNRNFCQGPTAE
Protocol: Synthetic ODNs (ODN 2006 (ODN 7909), class B CpG oligonucleotide, TLR9 agonist) was obtained from InvivoGen and was dissolved in endotoxin-free water to a concentration 500 μM, vortexed until complete solubilization, and stored in aliquots at −20° C. Prior to addition to cells, an aliquot of the dissolved ligand was vortexed shortly and then was diluted in medium to 50 μM.
(§1) Test compounds were solubilized fresh to 10-20 mM stocks in DMSO and sonicated for 5-10 minutes in a water bath sonicator. Serial dilutions were prepared in DMSO, and then diluted in medium. The final concentration of DMSO used in the assay was 1%.
(§2) HEK-Blue hTLR9 reporter cells (InvivoGen) are HEK-293 cells stably expressing both the human TLR9 gene and a secreted embryonic alkaline phosphatase (SEAP) reporter construct downstream of NFκB promotor sites. HEK-Blue hTLR9 cells were cultured according to manufacturer's protocol using Dulbecco's Modified Eagle Medium (DMEM; Gibco) containing 1× GlutaMax (Gibco), 10% heat-inactivated Fetal Bovine Serum (Gibco), Pen-Strep (50 U/mL penicillin, 50 μg/mL streptomycin, Gibco), 100 μg/mL Normocin (InvivoGen), and the selective antibiotics, 10 μg/mL Blasticidin (InvivoGen), and 100 μg/mL Zeocin (InvivoGen). Quanti-Blue reagent (InvivoGen) for detection and quantification of secreted alkaline phosphatase was dissolved in 100 mL of endotoxin-free water, warmed to 37° C. for 30 minutes and then filtered using a 0.2 μm membrane.
(§3) On day 1, 50 μL of each test compound dilution in duplicates or a vehicle control was added to each well of a 96-well plate followed by addition of 150 μL of HEK-Blue hTLR9 cell suspension (1×10^5 cells/well) and incubated at 37° C./5% CO2 for 2 h. Next, 50 μL of an approximate 3×EC50 concentration of TLR9 agonist, ODN 2006, was added to the wells containing test compounds or the vehicle control. The plates were then incubated at 37° C./5% CO2 for 18 h. For each assay run, vehicle-treated HEK-Blue hTLR9 cells were treated with serial dilutions of agonist to determine EC50 values for the respective run.
On day 2, secreted alkaline phosphatase (SEAP) activity was detected in cell culture supernatants. In brief, 30 μL was collected from each well and transferred to a 96-well plate. Next, 200 μL of Quanti-Blue detection reagent was added to each well. Plates were incubated at 37° C. for 60 min. and SEAP activity was assessed by spectrophotometer OD reading at 655 nm. […] Exact IC50 values were calculated based on 8-point dilutions for each compound. Approximate IC50 values (˜ or <) were calculated based on 4-point dilutions for each compound.

human TLR2 [1] = target: T1, human TLR2 (Homo sapiens (Human), UniProt O60603); test: HEK-Blue hTLR2 antagonism assay (SEAP reporter), agonist Pam3CSK4; settings: HEK-Blue hTLR2 cells; Pam3CSK4 (TLR1/2 agonist) at approx. 3×EC50; 18 h; 8-point dilutions
T1 sequence (O60603 21-784): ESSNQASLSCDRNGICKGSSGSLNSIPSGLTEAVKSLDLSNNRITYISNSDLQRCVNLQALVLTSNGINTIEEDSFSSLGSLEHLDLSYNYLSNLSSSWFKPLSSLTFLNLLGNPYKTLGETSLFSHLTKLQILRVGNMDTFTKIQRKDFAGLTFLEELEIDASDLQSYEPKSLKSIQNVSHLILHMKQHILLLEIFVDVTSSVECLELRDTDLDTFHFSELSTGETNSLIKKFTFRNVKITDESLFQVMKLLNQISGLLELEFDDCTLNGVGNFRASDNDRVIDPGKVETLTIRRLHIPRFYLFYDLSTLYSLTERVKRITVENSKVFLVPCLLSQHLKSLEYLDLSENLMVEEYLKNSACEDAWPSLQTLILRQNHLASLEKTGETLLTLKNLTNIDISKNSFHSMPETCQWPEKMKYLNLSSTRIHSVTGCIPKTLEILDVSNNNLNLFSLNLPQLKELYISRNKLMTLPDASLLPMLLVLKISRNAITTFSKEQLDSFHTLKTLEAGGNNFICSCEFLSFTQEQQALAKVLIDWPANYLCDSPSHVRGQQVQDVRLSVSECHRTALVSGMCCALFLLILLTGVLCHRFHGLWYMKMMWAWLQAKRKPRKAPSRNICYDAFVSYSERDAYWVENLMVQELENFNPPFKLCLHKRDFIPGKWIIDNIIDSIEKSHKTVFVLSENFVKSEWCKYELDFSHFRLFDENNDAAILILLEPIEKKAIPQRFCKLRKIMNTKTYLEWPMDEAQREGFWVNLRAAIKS
Protocol: (§4) Synthetic diacylated lipoprotein (Pam2CSK4, TLR2/6 agonist) and synthetic triacylated lipoprotein (Pam3CSK4, TLR1/2 agonist) were obtained from InvivoGen and were dissolved in endotoxin-free water to a concentration 1 mg/mL, vortexed until complete solubilization, and stored in aliquots at −20° C. Prior to addition to cells, an aliquot of the dissolved ligand was vortexed shortly and then was diluted in medium to 25 ng/mL Pam2CSK4 or 1000 ng/mL Pam3CSK4.
as §1
as §2, with “hTLR2” for “hTLR9”, “TLR2” for “TLR9”, “hTLR2 reporters” for “hTLR9 cells”, “antibiotic, lx HEK-Blue Selection” for “antibiotics, 10 μg/mL Blasticidin (InvivoGen), and 100 μg/mL Zeocin”
as §3, with “hTLR2” for “hTLR9”, “each agonist (Pam2CSK4 or Pam3CSK4)” for “TLR9 agonist, ODN 2006,”, “non-treated” for “vehicle-treated”, “agonists” for “agonist”
(§5) On day 2, secreted alkaline phosphatase (SEAP) activity was detected in cell culture supernatants. In brief, 20 μL was collected from each well and transferred to a 96-well plate. Next, 200 μL of Quanti-Blue detection reagent was added to each well. Plates were incubated at room temperature for 15 min and SEAP activity was assessed by spectrophotometer OD reading at 655 nm. […] IC50 values were calculated based on 8-point dilutions for each compound.

human TLR2 [2] = target: T1, human TLR2; test: HEK-Blue hTLR2 antagonism assay (SEAP reporter), agonist Pam2CSK4; settings: HEK-Blue hTLR2 cells; Pam2CSK4 (TLR2/6 agonist) at approx. 3×EC50; 18 h; 8-point dilutions
Protocol: as §4, §1
as §2, with “hTLR2” for “hTLR9”, “TLR2” for “TLR9”, “hTLR2 reporters” for “hTLR9 cells”, “antibiotic, lx HEK-Blue Selection” for “antibiotics, 10 μg/mL Blasticidin (InvivoGen), and 100 μg/mL Zeocin”
as §3, with “hTLR2” for “hTLR9”, “each agonist (Pam2CSK4 or Pam3CSK4)” for “TLR9 agonist, ODN 2006,”, “non-treated” for “vehicle-treated”, “agonists” for “agonist”
as §5

Compound | IC50 (human TLR9) | IC50 (human TLR2 [1]) [µM] | IC50 (human TLR2 [2]) [µM]
O=Cc1cc(C(=O)Nc2ncc(-c3ccc(F)cc3)s2)cc(F)c1O [Compound 11, 3-fluoro-N-(5-(4-fluorophenyl)thiazol-2-yl)-5-formyl-4-hydroxybenzamide] | 0.4 µM | 0.7 | 1
O=Cc1cc(C(=O)Nc2ncc(-c3cccc(N4CCCC4)c3)s2)cc(F)c1O [Compound 12, 3-fluoro-5-formyl-4-hydroxy-N-(5-(3-(pyrrolidin-1-yl)phenyl)thiazol-2-yl)benzamide] | 0.2 µM | 0.6 | 0.6
O=C(c1cc(F)c(O)c(/C=N/N2CCOCC2)c1)N1CCC(c2ccc(N3CCCC3)cc2)CC1 [Compound 164, (3-fluoro-4-hydroxy-5-((morpholinoimino)methyl)phenyl)(4-(4-(pyrrolidin-1-yl)phenyl)piperidin-1-yl)methanone] | 0.26 µM | 0.5 | 1.1
CN1CCN(/N=C/c2cc(-c3nc(-c4ccc(N5CCCC5)nc4)ns3)cc(F)c2O)CC1 [Compound 165, 2-fluoro-6-(((4-methylpiperazin-1-yl)imino)methyl)-4-(3-(6-(pyrrolidin-1-yl)pyridin-3-yl)-1,2,4-thiadiazol-5-yl)phenol] | 0.41 µM | 0.9 | 1.1
Oc1c(F)cc(-c2nc(-c3ccc(N4CCCC4)cc3)ns2)cc1/C=N/N1CCOCC1 [Compound 166, 2-fluoro-6-((morpholinoimino)methyl)-4-(3-(4-(pyrrolidin-1-yl)phenyl)-1,2,4-thiadiazol-5-yl)phenol] | 0.14 µM and 0.18 µM | 1 | 2.8
O=Cc1cc(C(=O)Nc2nc(-c3ccc(N4CCCC4)cc3)ns2)cc(F)c1O [Compound 167, 3-fluoro-5-formyl-4-hydroxy-N-(3-(4-(pyrrolidin-1-yl)phenyl)-1,2,4-thiadiazol-5-yl)benzamide] | 0.5 µM | 0.6 | 1.5

Results, then the compound that gave them:

IC50 (human TLR9) | IC50 (human TLR2 [1]) [µM] | IC50 (human TLR2 [2]) [µM] | Compound
0.6 µM | 0.3 | 0.4 | O=Cc1cc(C(=O)Nc2cnc(N3CCCC3)c(C(F)(F)F)c2)cc(F)c1O [Compound 19, 3-fluoro-5-formyl-4-hydroxy-N-(6-(pyrrolidin-1-yl)-5-(trifluoromethyl)pyridin-3-yl)benzamide]
0.1 µM | 0.5 | 0.5 | O=Cc1cc(-c2cnn(-c3ccc(C(F)(F)F)cc3)c2)cc(F)c1O [Compound 127, 3-fluoro-2-hydroxy-5-(1-(4-(trifluoromethyl)phenyl)-1H-pyrazol-4-yl)benzaldehyde]
0.26 µM | 0.4 | 0.6 | CN1CCN(/N=C/c2cc(C(=O)N3CCC(c4ccc(N5CCCC5)cc4)CC3)cc(F)c2O)CC1 [Compound 163, (3-fluoro-4-hydroxy-5-(((4-methylpiperazin-1-yl)imino)methyl)phenyl)(4-(4-(pyrrolidin-1-yl)phenyl)piperidin-1-yl)methanone]
